Patent US20200325177A1, “METHODS OF MAKING STREPTOGRAMIN COMPOSITIONS AND THE USE THEREOF” (THE REGENTS OF THE UNIVERSITY OF CALIFORNIA, priority 2017, published 2020)
Values after ≈ are worked out from the molar mass of the structure shown. Read-outs that look alike come from different tables or passages of the source.

Tests used:
Assay type in all cases: cell-based
[1] = test system: E. faecalis; experiment: MIC, Gram-positive bacteria: E. faecalis; settings: Enterococcus faecalis, column 1, read-out: Minimal Inhibitory Concentration (MIC) E. faecalis
[2] = test system: S. aureus Vat A streptogramin; experiment: MIC, Gram-positive bacteria: S. aureus Vat A streptogramin; settings: Staphylococcus aureus; Gram-positive; column 5; read-out: Minimal Inhibitory Concentration (MIC) S. aureus Vat A streptogramin
[3] = test system: S. aureus; experiment: MIC, Gram-positive bacteria: S. aureus (strains not named); settings: Staphylococcus aureus, read-out: Minimal Inhibitory Concentration (MIC) S. aureus
[4] = test system: Gram-Negative Organisms; experiment: microbe, parasite or virus in culture
[5] = test system: H. influenzae ATCC 49247; experiment: MIC, Gram-negative bacteria: H. influenzae ATCC 49247; settings: Haemophilus influenzae, ATCC49247, read-out: Minimal Inhibitory Concentration (MIC) H. influenzae ATCC 49247
[6] = test system: S. aureus Linezolid-resistant; cfr; experiment: MIC, Gram-positive bacteria: S. aureus Linezolid-resistant; cfr; settings: Staphylococcus aureus, column 9, read-out: Minimal Inhibitory Concentration (MIC) S. aureus Linezolid-resistant
[7] = test system: K. pneumoniae multidrug-resistant; experiment: MIC, Gram-negative bacteria: K. pneumoniae multidrug-resistant; settings: Klebsiella pneumoniae, read-out: Minimal Inhibitory Concentration (MIC) K. pneumoniae multidrug-resistant
[8] = test system: S. pneumoniae; experiment: MIC, Gram-positive bacteria: S. pneumoniae; settings: Streptococcus pneumoniae, column 10, read-out: Minimal Inhibitory Concentration (MIC) S. pneumoniae
[9] = test system: E. faecium ATCC 35667; experiment: MIC, Gram-positive bacteria: E. faecium ATCC 35667; settings: Enterococcus faecium, ATCC35667, column 2, read-out: Minimal Inhibitory Concentration (MIC) E. faecium ATCC 35667
[10] = test system: P. aeruginosa ATCC 27853; experiment: MIC, Gram-negative bacteria: P. aeruginosa ATCC 27853; settings: Pseudomonas aeruginosa, ATCC27853, read-out: Minimal Inhibitory Concentration (MIC) P. aeruginosa ATCC 27853
[11] = test system: E. faecium VRE; vanA; experiment: MIC, Gram-positive bacteria: E. faecium VRE; vanA; settings: Enterococcus faecium, column 3, read-out: Minimal Inhibitory Concentration (MIC) E. faecium VRE
[12] = test system: P. aeruginosa MDR clinical isolate; experiment: MIC, Gram-negative bacteria: P. aeruginosa MDR clinical isolate; settings: Pseudomonas aeruginosa, read-out: Minimal Inhibitory Concentration (MIC) P. aeruginosa MDR clinical isolate
[13] = first unnamed S. aureus column (c4)
[14] = fourth unnamed S. aureus column (c8)
[15] = second unnamed S. aureus column (c6)
[16] = third unnamed S. aureus column (c7)
[17] = Acinetobacter baumannii, ATCC19606, read-out: Minimal Inhibitory Concentration (MIC), A. baumannii ATCC 19606
[18] = Escherichia coli, ATCC25922, read-out: Minimal Inhibitory Concentration (MIC), E. coli ATCC 25922
[19] = Escherichia coli, read-out: Minimal Inhibitory Concentration (MIC), E. coli BAS2006, OMP C, OMP F
[20] = Escherichia coli, read-out: Minimal Inhibitory Concentration (MIC), E. coli olC efflux defective
[21] = Escherichia coli, read-out: Minimal Inhibitory Concentration (MIC), E. coli permeability mutant BAS1314, IMP4213ZAB::TN10
[22] = Escherichia coli, read-out: Minimal Inhibitory Concentration (MIC), E. coli ΔompC768, KanR insert
[23] = Klebsiella pneumoniae, ATCC43816, read-out: Minimal Inhibitory Concentration (MIC), K. pneumoniae ATCC 43816

CC1=C\[C@@H](O)CC(=O)Cc2nc(co2)C(=O)N2CCC[C@@H]2C(=O)O[C@H]([C@H](C)COC(=O)Nc2ccccc2)[C@H](C)/C=C/C(=O)NC\C=C\1 [SA0110196]
MIC [1]: > 64 µg/mL
MIC [2]: > 64 µg/mL
MIC [3, 13]: 32 µg/mL (≈ 48.3 µM)
MIC [3, 14]: 16 µg/mL (≈ 24.1 µM)
MIC [3, 15]: 32 µg/mL (≈ 48.3 µM)
MIC [3, 16]: 64 µg/mL (≈ 96.6 µM)
MIC [4, 17]: > 64 µg/mL
MIC [4, 18]: > 64 µg/mL
MIC [4, 19]: 32 µg/mL (≈ 48.3 µM)
MIC [4, 20]: 2 µg/mL (≈ 3.02 µM)
MIC [4, 21]: 8 µg/mL (≈ 12.1 µM)
MIC [4, 22]: > 64 µg/mL
MIC [4, 23]: > 64 µg/mL
MIC [5]: 16 µg/mL (≈ 24.1 µM)
MIC [6]: > 64 µg/mL
MIC [7]: > 64 µg/mL
MIC [8]: 32 µg/mL (≈ 48.3 µM)
MIC [9]: 16 µg/mL (≈ 24.1 µM)
MIC [10]: > 64 µg/mL
MIC [11]: 64 µg/mL (≈ 96.6 µM)
MIC [12]: > 64 µg/mL

CC1=C\[C@@H](O)CC(=O)Cc2nc(co2)C(=O)N2CCC[C@@H]2C(=O)O[C@H]([C@H](C)COC(=O)Nc2cccnc2)[C@H](C)/C=C/C(=O)NC\C=C\1 [SA0110205]
MIC [1]: > 64 µg/mL
MIC [2]: > 64 µg/mL
MIC [3, 13]: > 64 µg/mL
MIC [3, 14]: > 64 µg/mL
MIC [3, 15]: > 64 µg/mL
MIC [3, 16]: > 64 µg/mL
MIC [4, 17]: > 64 µg/mL
MIC [4, 18]: > 64 µg/mL
MIC [4, 19]: > 64 µg/mL
MIC [4, 20]: 8 µg/mL (≈ 12.1 µM)
MIC [4, 21]: 16 µg/mL (≈ 24.1 µM)
MIC [4, 22]: > 64 µg/mL
MIC [4, 23]: > 64 µg/mL
MIC [5]: 32 µg/mL (≈ 48.2 µM)
MIC [6]: > 64 µg/mL
MIC [7]: > 64 µg/mL
MIC [8]: 32 µg/mL (≈ 48.2 µM)
MIC [9]: 32 µg/mL (≈ 48.2 µM)
MIC [10]: > 64 µg/mL
MIC [11]: 64 µg/mL (≈ 96.4 µM)
MIC [12]: > 64 µg/mL

CC1=C\[C@@H](O)CC(=O)Cc2nc(co2)C(=O)N2CCC[C@@H]2C(=O)O[C@H]([C@H](C)COC(=O)Nc2ccnc(Br)c2)[C@H](C)/C=C/C(=O)NC\C=C\1 [SA0110206]
MIC [1]: > 64 µg/mL
MIC [2]: > 64 µg/mL
MIC [3, 13]: 16 µg/mL (≈ 21.5 µM)
MIC [3, 14]: 16 µg/mL (≈ 21.5 µM)
MIC [3, 15]: 16 µg/mL (≈ 21.5 µM)
MIC [3, 16]: 32 µg/mL (≈ 43.1 µM)
MIC [4, 17]: > 64 µg/mL
MIC [4, 18]: > 64 µg/mL
MIC [4, 19]: 16 µg/mL (≈ 21.5 µM)
MIC [4, 20]: 2 µg/mL (≈ 2.69 µM)
MIC [4, 21]: 2 µg/mL (≈ 2.69 µM)
MIC [4, 22]: > 64 µg/mL
MIC [4, 23]: > 64 µg/mL
MIC [5]: 4 µg/mL (≈ 5.39 µM)
MIC [6]: > 64 µg/mL
MIC [7]: > 64 µg/mL
MIC [8]: 8 µg/mL (≈ 10.8 µM)
MIC [9]: 8 µg/mL (≈ 10.8 µM)
MIC [10]: > 64 µg/mL
MIC [11]: 16 µg/mL (≈ 21.5 µM)
MIC [12]: > 64 µg/mL

CC1=C\[C@@H](O)CC(=O)Cc2nc(co2)C(=O)N2CCC[C@@H]2C(=O)O[C@H]([C@H](C)COC(=O)Nc2ccc(Br)nc2)[C@H](C)/C=C/C(=O)NC\C=C\1 [SA0110209]
MIC [1]: > 64 µg/mL
MIC [2]: > 64 µg/mL
MIC [3, 13]: 16 µg/mL (≈ 21.5 µM)
MIC [3, 14]: 16 µg/mL (≈ 21.5 µM)
MIC [3, 15]: 16 µg/mL (≈ 21.5 µM)
MIC [3, 16]: > 64 µg/mL
MIC [4, 17]: > 64 µg/mL
MIC [4, 18]: > 64 µg/mL
MIC [4, 19]: > 64 µg/mL
MIC [4, 20]: 2 µg/mL (≈ 2.69 µM)
MIC [4, 21]: 2 µg/mL (≈ 2.69 µM)
MIC [4, 22]: > 64 µg/mL
MIC [4, 23]: > 64 µg/mL
MIC [5]: 8 µg/mL (≈ 10.8 µM)
MIC [6]: > 64 µg/mL
MIC [7]: > 64 µg/mL
MIC [8]: 16 µg/mL (≈ 21.5 µM)
MIC [9]: 16 µg/mL (≈ 21.5 µM)
MIC [10]: > 64 µg/mL
MIC [11]: > 64 µg/mL
MIC [12]: > 64 µg/mL

CC1=C\[C@@H](O)CC(=O)Cc2nc(co2)C(=O)N2CCC[C@@H]2C(=O)O[C@H]([C@H](C)COC(=O)Nc2coc(C)n2)[C@H](C)/C=C/C(=O)NC\C=C\1 [SA0110210]
MIC [1]: > 64 µg/mL
MIC [2]: > 64 µg/mL
MIC [3, 13]: > 64 µg/mL
MIC [3, 14]: > 64 µg/mL
MIC [3, 15]: > 64 µg/mL
MIC [3, 16]: > 64 µg/mL
MIC [4, 17]: > 64 µg/mL
MIC [4, 18]: > 64 µg/mL
MIC [4, 19]: > 64 µg/mL
MIC [4, 20]: 8 µg/mL (≈ 12 µM)
MIC [4, 21]: 8 µg/mL (≈ 12 µM)
MIC [4, 22]: > 64 µg/mL
MIC [4, 23]: > 64 µg/mL
MIC [5]: 16 µg/mL (≈ 24 µM)
MIC [6]: > 64 µg/mL
MIC [7]: > 64 µg/mL
MIC [8]: 64 µg/mL (≈ 95.8 µM)
MIC [9]: 64 µg/mL (≈ 95.8 µM)
MIC [10]: > 64 µg/mL
MIC [11]: 64 µg/mL (≈ 95.8 µM)
MIC [12]: > 64 µg/mL

CC1=C\[C@@H](O)CC(=O)Cc2nc(co2)C(=O)N2CCC[C@@H]2C(=O)O[C@H]([C@H](C)COC(=O)Nc2csc(C)n2)[C@H](C)/C=C/C(=O)NC\C=C\1 [SA0110214]
MIC [1]: > 64 µg/mL
MIC [2]: > 64 µg/mL
MIC [3, 13]: 64 µg/mL (≈ 93.6 µM)
MIC [3, 14]: 64 µg/mL (≈ 93.6 µM)
MIC [3, 15]: 64 µg/mL (≈ 93.6 µM)
MIC [3, 16]: > 64 µg/mL
MIC [4, 17]: > 64 µg/mL
MIC [4, 18]: > 64 µg/mL
MIC [4, 19]: 64 µg/mL (≈ 93.6 µM)
MIC [4, 20]: 8 µg/mL (≈ 11.7 µM)
MIC [4, 21]: 8 µg/mL (≈ 11.7 µM)
MIC [4, 22]: > 64 µg/mL
MIC [4, 23]: > 64 µg/mL
MIC [5]: 16 µg/mL (≈ 23.4 µM)
MIC [6]: > 64 µg/mL
MIC [7]: > 64 µg/mL
MIC [8]: 32 µg/mL (≈ 46.8 µM)
MIC [9]: 32 µg/mL (≈ 46.8 µM)
MIC [10]: > 64 µg/mL
MIC [11]: 64 µg/mL (≈ 93.6 µM)
MIC [12]: > 64 µg/mL

CC1=C\[C@@H](O)CC(=O)Cc2nc(co2)C(=O)N2CCC[C@@H]2C(=O)O[C@H]([C@H](C)COC(=O)Nc2cnccn2)[C@H](C)/C=C/C(=O)NC\C=C\1 [SA0110215]
MIC [1]: > 64 µg/mL
MIC [2]: > 64 µg/mL
MIC [3, 13]: > 64 µg/mL
MIC [3, 14]: > 64 µg/mL
MIC [3, 15]: > 64 µg/mL
MIC [3, 16]: > 64 µg/mL
MIC [4, 17]: > 64 µg/mL
MIC [4, 18]: > 64 µg/mL
MIC [4, 19]: > 64 µg/mL
MIC [4, 20]: 8 µg/mL (≈ 12 µM)
MIC [4, 21]: 16 µg/mL (≈ 24.1 µM)
MIC [4, 22]: > 64 µg/mL
MIC [4, 23]: > 64 µg/mL
MIC [5]: 16 µg/mL (≈ 24.1 µM)
MIC [6]: > 64 µg/mL
MIC [7]: > 64 µg/mL
MIC [8]: 64 µg/mL (≈ 96.3 µM)
MIC [9]: 64 µg/mL (≈ 96.3 µM)
MIC [10]: > 64 µg/mL
MIC [11]: > 64 µg/mL
MIC [12]: > 64 µg/mL

CC1=C\[C@@H](O)CC(=O)Cc2nc(co2)C(=O)N2CCC[C@@H]2C(=O)O[C@H]([C@H](C)COC(=O)Nc2ccn(C)n2)[C@H](C)/C=C/C(=O)NC\C=C\1 [SA0110218]
MIC [1]: > 64 µg/mL
MIC [2]: > 64 µg/mL
MIC [3, 13]: > 64 µg/mL
MIC [3, 14]: > 64 µg/mL
MIC [3, 15]: > 64 µg/mL
MIC [3, 16]: > 64 µg/mL
MIC [4, 17]: > 64 µg/mL
MIC [4, 18]: > 64 µg/mL
MIC [4, 19]: > 64 µg/mL
MIC [4, 20]: 16 µg/mL (≈ 24 µM)
MIC [4, 21]: 32 µg/mL (≈ 48 µM)
MIC [4, 22]: > 64 µg/mL
MIC [4, 23]: > 64 µg/mL
MIC [5]: 32 µg/mL (≈ 48 µM)
MIC [6]: > 64 µg/mL
MIC [7]: > 64 µg/mL
MIC [8]: > 64 µg/mL
MIC [9]: > 64 µg/mL
MIC [10]: > 64 µg/mL
MIC [11]: > 64 µg/mL
MIC [12]: > 64 µg/mL
